≈ marks a conversion by molar mass, not a printed value.
Columns and labels:
[1] = target: T1, Carbonic anhydrase 4 (Bos taurus, UniProt Q95323)
T1 sequence (Q95323 whole entry): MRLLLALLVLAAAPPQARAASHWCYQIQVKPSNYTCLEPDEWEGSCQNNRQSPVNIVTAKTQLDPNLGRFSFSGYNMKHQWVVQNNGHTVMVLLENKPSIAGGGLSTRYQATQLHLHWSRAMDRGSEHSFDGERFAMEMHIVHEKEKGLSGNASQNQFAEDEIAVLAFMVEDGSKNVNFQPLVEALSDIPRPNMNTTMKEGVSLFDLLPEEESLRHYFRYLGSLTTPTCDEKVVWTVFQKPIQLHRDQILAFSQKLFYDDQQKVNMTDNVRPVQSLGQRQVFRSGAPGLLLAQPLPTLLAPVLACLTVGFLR
Description: Inhibitory activity against bovine carbonic anhydrase IV (CA4), isolated from bovine lung microsomes

[2] = species: Oryctolagus cuniculus; experiment: The compound was evaluated for fall in intraocular pressure (IOP) of Normotensive rabbits after treatment with one drop (50 microL) of a 2% solution at 0 min (pH 6.5); assay type: functional, Eye
[3] = species: Oryctolagus cuniculus; experiment: The compound was evaluated for fall in intraocular pressure (IOP) of Normotensive rabbits after treatment with one drop (50 microL) of a 2% solution at 30 min (pH 6.5); assay type: functional, Eye
[4] = species: Oryctolagus cuniculus; experiment: The compound was evaluated for fall in intraocular pressure (IOP) of Glaucomatous rabbits after treatment with one drop (50 microL) of a 2% solution at 60 min (pH 6.5); assay type: functional, Eye
[5] = species: Oryctolagus cuniculus; experiment: The compound was evaluated for fall in intraocular pressure (IOP) of Glaucomatous rabbits after treatment with one drop (50 microL) of a 2% solution at 90 min (pH 6.5); assay type: functional, Eye
[6] = species: Oryctolagus cuniculus; experiment: The compound was evaluated for fall in intraocular pressure (IOP) of Normotensive rabbits after treatment with one drop (50 microL) of a 2% solution at 60 min (pH 6.5); assay type: functional, Eye
[7] = species: Oryctolagus cuniculus; experiment: The compound was evaluated for fall in intraocular pressure (IOP) of Normotensive rabbits after treatment with one drop (50 microL) of a 2% solution at 90 min (pH 6.5); assay type: functional, Eye
[8] = species: Oryctolagus cuniculus; experiment: The compound was evaluated for fall in intraocular pressure (IOP) of Glaucomatous rabbits after treatment with one drop (50 microL) of a 2% solution at 0 min (pH 6.5); assay type: functional, Eye
[9] = species: Oryctolagus cuniculus; experiment: The compound was evaluated for fall in intraocular pressure (IOP) of Glaucomatous rabbits after treatment with one drop (50 microL) of a 2% solution at 30 min (pH 6.5); assay type: functional, Eye
[10] = target: Carbonic anhydrase 1 (Homo sapiens, UniProt P00915)
Carbonic anhydrase 1, sequence (P00915 whole entry): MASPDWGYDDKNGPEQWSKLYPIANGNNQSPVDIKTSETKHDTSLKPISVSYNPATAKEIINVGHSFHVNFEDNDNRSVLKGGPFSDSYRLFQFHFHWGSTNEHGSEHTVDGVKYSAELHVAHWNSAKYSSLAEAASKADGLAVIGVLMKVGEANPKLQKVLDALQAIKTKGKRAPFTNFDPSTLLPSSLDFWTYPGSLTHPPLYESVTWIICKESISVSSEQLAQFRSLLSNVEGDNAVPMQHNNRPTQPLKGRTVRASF
Description: Inhibitory activity against human recombinant carbonic anhydrase I (CA1)

[11] = species: Oryctolagus cuniculus; experiment: The compound was evaluated for fall in intraocular pressure (IOP) of Glaucomatous rabbits after treatment with one drop (50 microL) of a 2% solution at 60 min (pH 6.4); assay type: functional, Eye
[12] = species: Oryctolagus cuniculus; experiment: The compound was evaluated for fall in intraocular pressure (IOP) of Glaucomatous rabbits after treatment with one drop (50 microL) of a 2% solution at 90 min (pH 6.4); assay type: functional, Eye
[13] = species: Oryctolagus cuniculus; experiment: The compound was evaluated for fall in intraocular pressure (IOP) of Narmotensive rabbits after treatment with one drop (50 microL) of a 2% solution at 0 min (pH 6.4); assay type: functional, Eye
[14] = species: Oryctolagus cuniculus; experiment: The compound was evaluated for fall in intraocular pressure (IOP) of Narmotensive rabbits after treatment with one drop (50 microL) of a 2% solution at 30 min (pH 6.4); assay type: functional, Eye
[15] = species: Oryctolagus cuniculus; experiment: The compound was evaluated for fall in intraocular pressure (IOP) of Narmotensive rabbits after treatment with one drop (50 microL) of a 2% solution at 60 min (pH 6.4); assay type: functional, Eye
[16] = species: Oryctolagus cuniculus; experiment: The compound was evaluated for fall in intraocular pressure (IOP) of Narmotensive rabbits after treatment with one drop (50 microL) of a 2% solution at 90 min (pH 6.4); assay type: functional, Eye
[17] = species: Oryctolagus cuniculus; experiment: The compound was evaluated for fall in intraocular pressure (IOP) of Glaucomatous rabbits after treatment with one drop (50 microL) of a 2% solution at 0 min ((pH 6.4); assay type: functional, Eye
[18] = species: Oryctolagus cuniculus; experiment: The compound was evaluated for fall in intraocular pressure (IOP) of Glaucomatous rabbits after treatment with one drop (50 microL) of a 2% solution at 30 min (pH 6.4); assay type: functional, Eye
[19] = species: Oryctolagus cuniculus; experiment: The compound was evaluated for fall in intraocular pressure (IOP) of Normotensive rabbits after treatment with one drop (50 microL) of a 2% solution at 0 min (pH 7.0); assay type: functional, Eye
[20] = species: Oryctolagus cuniculus; experiment: The compound was evaluated for fall in intraocular pressure (IOP) of Normotensive rabbits after treatment with one drop (50 microL) of a 2% solution at 30 min (pH 7.0); assay type: functional, Eye
[21] = species: Oryctolagus cuniculus; experiment: The compound was evaluated for fall in intraocular pressure (IOP) of Normotensive rabbits after treatment with one drop (50 microL) of a 2% solution at 90 min (pH 7.0); assay type: functional, Eye
[22] = species: Oryctolagus cuniculus; experiment: The compound was evaluated for fall in intraocular pressure (IOP) of Normotensive rabbits after treatment with one drop (50 microL) of a 2% solution at 60 min (pH 7.0); assay type: functional, Eye
[23] = species: Oryctolagus cuniculus; experiment: The compound was evaluated for fall in intraocular pressure (IOP) of Normotensive rabbits after treatment with one drop (50 microL) of a 2% solution at 30 min (pH 5.6); assay type: functional, Eye
[24] = species: Oryctolagus cuniculus; experiment: The compound was evaluated for fall in intraocular pressure (IOP) of Normotensive rabbits after treatment with one drop (50 microL) of a 2% solution at 0 min (pH 5.6); assay type: functional, Eye
[25] = species: Oryctolagus cuniculus; experiment: The compound was evaluated for fall in intraocular pressure (IOP) of Normotensive rabbits after treatment with one drop (50 microL) of a 2% solution at 60 min (pH 5.6); assay type: functional, Eye
[26] = species: Oryctolagus cuniculus; experiment: The compound was evaluated for fall in intraocular pressure (IOP) of Normotensive rabbits after treatment with one drop (50 microL) of a 2% solution at 90 min (pH 5.6); assay type: functional, Eye
[27] = not given; remark: listed apart in the source
[28] = octanol/water
Description: Partition coefficient (logD) (chloroform/buffer)

[29] = physchem; conditions: buffer, pH 7.4

CN(CC(=O)Nc1nnc(S(N)(=O)=O)s1)C(=N)N
Ki [1]: 35 nM
Change in IOP [2]: 0 mmHg
Change in IOP [3]: 6.5 mmHg
Change in IOP [4]: 13.4 mmHg
Change in IOP [5]: 14.5 mmHg
Change in IOP [6]: 10.1 mmHg
Change in IOP [7]: 9.1 mmHg
Change in IOP [8]: 0 mmHg
Change in IOP [9]: 8.5 mmHg
Ki [10]: 170 nM

NCC(=O)NCC(=O)Nc1nnc(S(N)(=O)=O)s1
Ki [1]: 45 nM
Change in IOP [11]: 12 mmHg
Change in IOP [12]: 13.8 mmHg
Change in IOP [13]: 0 mmHg
Change in IOP [14]: 5.6 mmHg
Change in IOP [15]: 9 mmHg
Change in IOP [16]: 8.9 mmHg
Change in IOP [17]: 0 mmHg
Change in IOP [18]: 7.7 mmHg
Ki [10]: 320 nM

CN(CC(=O)/N=c1/sc(S(N)(=O)=O)nn1C)C(=N)N
Ki [1]: 41 nM
Change in IOP [19]: 0 mmHg
Change in IOP [20]: 5.5 mmHg
Change in IOP [21]: 9 mmHg
Change in IOP [22]: 9.2 mmHg
Ki [10]: 190 nM

CCNC1CC(C)S(=O)(=O)c2sc(S(=O)(=O)NC(=O)CNC)cc21 (stereo unspecified)
Ki [1]: 30 nM
Change in IOP [23]: 3.1 mmHg
Change in IOP [24]: 0 mmHg
Change in IOP [25]: 7 mmHg
Change in IOP [26]: 5.5 mmHg
Ki [10]: 78 nM
kin: 3.9 h⁻¹
kin [27]: 7.8 h⁻¹
logD [28]: 1.785
solubility [29]: 62 mM (≈ 24.5 mg/mL)

Reference: ChEMBL document CHEMBL1132382 (J Med Chem, 1999)
